Test results taken from BindingDB's records for doi:10.1021/acs.jmedchem.9b01562 (Lupin, 2019).

Key:
[1] = Inhibition of NS5A in HCV genotype 1b infected in human HuH7.5/Con1/SG-Neo(I)-hRluc2aUb cells assessed as inhibition of replicon levels incubated for 72 hrs by luciferase reporter gene assay
[2] = Inhibition of NS5A in HCV genotype 2a infected in human Huh7.5/J6/JFH1/EMCVIRES/hRlucNeo cells assessed as inhibition of replicon levels incubated for 72 hrs by luciferase reporter gene assay
[3] = Inhibition of NS5A in HCV genotype 1a infected in human HuH7.5/Con1/SG-Neo(I)-hRluc2aUb cells assessed as inhibition of replicon levels incubated for 72 hrs by luciferase reporter gene assay
[4] = Inhibition of NS5A in HCV genotype 3a infected in human HuH7.5/Con1/SG-Neo(I)-hRluc2aUb cells assessed as inhibition of replicon levels incubated for 72 hrs by luciferase reporter gene assay
[5] = Inhibition of NS5A in HCV genotype 4a infected in human HuH7.5/Con1/SG-Neo(I)-hRluc2aUb cells assessed as inhibition of replicon levels incubated for 72 hrs by luciferase reporter gene assay
[6] = Inhibition of NS5A in HCV genotype 6a infected in human HuH7.5/Con1/SG-Neo(I)-hRluc2aUb cells assessed as inhibition of replicon levels incubated for 72 hrs by luciferase reporter gene assay

Row | SMILES | IC50 [1] | IC50 [2] | IC50 [3] | IC50 [4] | IC50 [5] | IC50 [6]
1 | COC(=O)N[C@H](C(=O)N1CCC[C@H]1c1ncc(-c2ccc3c(c2)CC2(C3)Cc3ccc(-c4cnc([C@@H]5CCCN5C(=O)[C@@H](NC(=O)OC)C(C)C)[nH]4)cc3C2)[nH]1)C(C)C | 0.08 nM | 27 nM | – | – | – | –
2 | COC(=O)N[C@H](C(=O)N1CCC[C@H]1c1nc(C2CC2)c(-c2ccc3c(c2)OCC(C)(C)COc2cc(-c4[nH]c([C@@H]5CCCN5C(=O)[C@@H](NC(=O)OC)C(C)C)nc4C4CC4)ccc2-3)[nH]1)C(C)C | 0.115 nM | 6.8 nM | – | – | – | –
3 | COC(=O)N[C@H](C(=O)N1CCC[C@H]1c1nc(Cl)c(-c2ccc3c(c2)CCCc2cc(-c4[nH]c([C@@H]5CCCN5C(=O)[C@@H](NC(=O)OC)C(C)C)nc4Cl)sc2-3)[nH]1)C(C)C | 0.02 nM | 0.052 nM | – | – | – | –
4 | COC(=O)N[C@H](C(=O)N1CCC[C@H]1c1nc(Cl)c(-c2ccc3c(c2)OCCc2cc(-c4[nH]c([C@@H]5CCCN5C(=O)[C@@H](NC(=O)OC)C(C)C)nc4Cl)sc2-3)[nH]1)C(C)C | 0.008 nM | 1.3 nM | – | – | – | –
5 | COC(=O)N[C@H](C(=O)N1[C@H]2CC[C@H](C2)[C@H]1c1ncc(-c2ccc3c(ccc4cc(-c5cnc([C@@H]6[C@@H]7CC[C@@H](C7)N6C(=O)[C@@H](NC(=O)OC)C(C)C)[nH]5)sc43)c2)[nH]1)C(C)C | 0.021 nM | 0.337 nM | – | – | – | –
6 | COC(=O)N[C@H](C(=O)N1CCC[C@H]1c1nc(Cl)c(-c2ccc3c(c2)OCC(C)(C)COc2cc(-c4[nH]c([C@@H]5CCCN5C(=O)[C@@H](NC(=O)OC)C(C)C)nc4Cl)ccc2-3)[nH]1)C(C)C | 0.004 nM | 0.322 nM | – | – | – | –
7 | COC(=O)N[C@H](C(=O)N1CCC[C@H]1c1ncc(-c2ccc3c(c2)OCC(C)(C)COc2cc(-c4[nH]c([C@@H]5CCCN5C(=O)[C@@H](NC(=O)OC)C(C)C)nc4Cl)ccc2-3)[nH]1)C(C)C | 0.021 nM | 0.671 nM | – | – | – | –
8 | COC(=O)N[C@H](C(=O)N1CCC[C@H]1c1nc(Cl)c(-c2ccc3c(c2)OCCCOc2cc(-c4[nH]c([C@@H]5CCCN5C(=O)[C@@H](NC(=O)OC)C(C)C)nc4Cl)ccc2-3)[nH]1)C(C)C | 0.019 nM | 0.031 nM | – | – | – | –
9 | COC(=O)N[C@H](C(=O)N1CCC[C@H]1c1ncc(-c2ccc3c(ccc4sc(-c5cnc([C@@H]6CCCN6C(=O)[C@@H](NC(=O)OC)C(C)C)[nH]5)nc43)c2)[nH]1)C(C)C | 0.073 nM | – | – | – | – | –
10 | COC(=O)N[C@H](C(=O)N1CCC[C@H]1c1ncc(-c2ccc(C34CCC(c5ccc(-c6cnc([C@@H]7CCCN7C(=O)[C@@H](NC(=O)OC)C(C)C)[nH]6)cc5)(CC3)CC4)cc2)[nH]1)C(C)C | 0.312 nM | 34 nM | – | – | – | –
11 | COC(=O)N[C@H](C(=O)N1CCC[C@H]1c1ncc(-c2ccc(N3CC4CC3CN4c3ccc(-c4cnc([C@@H]5CCCN5C(=O)[C@@H](NC(=O)OC)C(C)C)[nH]4)cc3)cc2)[nH]1)C(C)C | 3.7 nM | 4 nM | – | – | – | –
12 | COC(=O)N[C@H](C(=O)N1CCC[C@H]1c1nc(-c2ccc(-c3ccc(-c4c[nH]c([C@@H]5CCCN5C(=O)[C@@H](NC(=O)OC)C(C)C)n4)cc3)cc2)c[nH]1)C(C)C [BMS-790052] | 0.023 nM | 0.009 nM | – | – | – | –
13 | COC(=O)N[C@H](C(=O)N1CCC[C@H]1c1ncc(-c2ccc(-c3ccc(-c4ccc(-c5cnc([C@@H]6CCCN6C(=O)[C@@H](NC(=O)OC)C(C)C)[nH]5)cc4)cc3)cc2)[nH]1)C(C)C | 0.136 nM | 26 nM | – | – | – | –
14 | COC(=O)N[C@H](C(=O)N1CCC[C@H]1c1ncc(-c2ccc3c(ccc4cc(-c5cnc([C@@H]6[C@@H]7CC[C@@H](C7)N6C(=O)[C@@H](NC(=O)OC)C(C)C)[nH]5)sc43)c2)[nH]1)C(C)C | 0.013 nM | 0.011 nM | – | – | – | –
15 | COC(=O)N[C@H](C(=O)N1CCC[C@H]1c1ncc(-c2ccc3c(c2)OCC2(CC2)COc2cc(-c4cnc([C@@H]5CCCN5C(=O)[C@@H](NC(=O)OC)C(C)C)[nH]4)ccc2-3)[nH]1)C(C)C | 0.135 nM | 1.8 nM | – | – | – | –
16 | COC(=O)N[C@H](C(=O)N1CCC[C@H]1c1ncc(-c2ccc(N3CCN(c4ccc(-c5cnc([C@@H]6CCCN6C(=O)[C@@H](NC(=O)OC)C(C)C)[nH]5)cc4)CC3)cc2)[nH]1)C(C)C | 0.262 nM | 4.6 nM | – | – | – | –
17 | CCc1nc([C@@H]2CCCN2C(=O)[C@@H](NC(=O)OC)C(C)C)[nH]c1-c1ccc2c(c1)OCC(C)(C)COc1cc(-c3[nH]c([C@@H]4CCCN4C(=O)[C@@H](NC(=O)OC)C(C)C)nc3CC)ccc1-2 | 0.219 nM | 80 nM | – | – | – | –
18 | COC(=O)N[C@H](C(=O)N1CCC[C@H]1c1ncc(-c2ccc3c(c2)OCCCOc2cc(-c4[nH]c([C@@H]5CCCN5C(=O)[C@@H](NC(=O)OC)C(C)C)nc4Cl)ccc2-3)[nH]1)C(C)C | 0.051 nM | 0.053 nM | – | – | – | –

Second part, the molecule after the results:

Row | IC50 [1] | IC50 [2] | IC50 [3] | IC50 [4] | IC50 [5] | IC50 [6] | SMILES
19 | 0.288 nM | 0.314 nM | – | – | – | – | COC(=O)N[C@H](C(=O)N1CCC[C@H]1c1ncc(-c2ccc3c(c2)OCCCOc2cc(-c4cnc([C@@H]5CCCN5C(=O)[C@@H](NC(=O)OC)C(C)C)[nH]4)ccc2-3)[nH]1)C(C)C
20 | 0.194 nM | 1.3 nM | – | – | – | – | COC(=O)N[C@H](C(=O)N1CCC[C@H]1c1ncc(-c2ccc3c(c2)OCCCCOc2cc(-c4cnc([C@@H]5CCCN5C(=O)[C@@H](NC(=O)OC)C(C)C)[nH]4)ccc2-3)[nH]1)C(C)C
21 | 0.015 nM | 0.009 nM | – | – | – | – | COC(=O)N[C@H](C(=O)N1CCC[C@H]1c1ncc(-c2ccc3c(c2)CCc2cc(-c4cnc([C@@H]5CCCN5C(=O)[C@@H](NC(=O)OC)C(C)C)[nH]4)ccc2-3)[nH]1)C(C)C
22 | 0.069 nM | 0.176 nM | – | – | – | – | COC(=O)N[C@H](C(=O)N1CCC[C@H]1c1ncc(-c2ccc3c(c2)OCC(C)(C)COc2cc(-c4cnc([C@@H]5CCCN5C(=O)[C@@H](NC(=O)OC)C(C)C)[nH]4)ccc2-3)[nH]1)C(C)C
23 | 0.021 nM | 0.021 nM | – | – | – | – | COC(=O)N[C@H](C(=O)N1CCC[C@H]1c1ncc(-c2ccc3c(c2)CCc2cc(-c4cnc([C@@H]5CCCN5C(=O)[C@@H](NC(=O)OC)C(C)C)[nH]4)sc2-3)[nH]1)C(C)C
24 | 0.012 nM | 0.005 nM | 0.027 nM | 0.047 nM | 0.003 nM | 0.028 nM | COC(=O)N[C@H](C(=O)N1CCC[C@H]1c1ncc(-c2ccc3c(ccc4cc(-c5cnc([C@@H]6CCCN6C(=O)[C@@H](NC(=O)OC)C(C)C)[nH]5)sc43)c2)[nH]1)C(C)C
25 | 0.02 nM | 0.03 nM | 0.031 nM | 0.075 nM | 0.009 nM | 0.055 nM | COC(=O)N[C@H](C(=O)N1CCC[C@H]1c1ncc(-c2ccc3c(c2)OCc2cc(-c4cnc([C@@H]5CCCN5C(=O)[C@@H](NC(=O)OC)C(C)C)[nH]4)sc2-3)[nH]1)C(C)C
26 | 0.022 nM | 10.6 nM | – | – | – | – | COC(=O)N[C@H](C(=O)N1CCC[C@H]1c1ncc(-c2ccc3c(c2)OCCc2cc(-c4cnc([C@@H]5CCCN5C(=O)[C@@H](NC(=O)OC)C(C)C)[nH]4)sc2-3)[nH]1)C(C)C
27 | 0.021 nM | 0.801 nM | – | – | – | – | COC(=O)N[C@H](C(=O)N1CCC[C@H]1c1ncc(-c2ccc3c(c2)CCCc2cc(-c4cnc([C@@H]5CCCN5C(=O)[C@@H](NC(=O)OC)C(C)C)[nH]4)sc2-3)[nH]1)C(C)C
